pEC50: −log10 of the molar value.
Key:
Aβ42 peptide = target: T1, Aβ42 peptide (Homo sapiens, UniProt P05067); experiment: Thioflavin T assay of Aβ aggregation; type: biochemical; details: Aβ42 5 μM, compound 5–20 μM, 37°C 48 h; read-out: Aβ aggregation inhibition EC50 (Thioflavin T)
T1 construct: containing Aβ42 peptide (5 μM); purchased AnaSpec; host or cells: synthetic
Experimental: In brief, the tested compound (5–20 μM) was added to a buffer solution (150 mM NaCl, 20 mM Tris-HCl (pH 8.0)) containing Aβ42 peptide (5 μM) and incubated at 37°C for 48 h. Thioflavin T (10 μM) (Sigma-Aldrich) then was added, and the mixture was incubated for 5 min at room temperature. Subsequently, the fluorescence intensity was quantified at 420/485 nm of excitation/emission wavelengths using a FLx800 microplate reader (Bio-Tek, Winooski, VT, USA). EC50 was computed as described.

[1] = tested on: ∆K280 tauRD-DsRed SH-SY5Y cells; experiment: High content analysis of ΔK280 tauRD-DsRed fluorescence; type: cell-based, Human; details: tested 2.5–10 μM
Experimental: Human 293-derived Flp-In-293 cells (Invitrogen, Madison, WI, USA) were cultivated in Dulbecco's modified Eagle's medium (DMEM) containing 10% foetal bovine serum (FBS) (Thermo Fisher Scientific). Human neuroblastoma SH-SY5Y-derived Aβ-GFP [23] and ∆K280 tauRD-DsRed cells were kept in DMEM/nutrient mixture F12 (DMEM/F12) containing 10% FBS, 5 μg/ml blasticidin, and 100 μg/ml hygromycin (InvivoGen, San Diego, CA, USA). Doxycycline (Sigma-Aldrich) was applied to induce the expression of Aβ-GFP (5 μg/ml doxycycline) or ∆K280 tauRD-DsRed (2 μg/ml doxycycline).
On day 1, Aβ-GFP or ∆K280 tauRD-DsRed SH-SY5Y cells were seeded into 96-well plates (2.5 × 10^4/well) and treated with retinoic acid (10 μM; Sigma-Aldrich) to prompt neuronal differentiation. […] On day 8, cells were stained with Hoechst 33342 (0.1 μg/ml; Sigma-Aldrich) for 30 min, and cell images were automatically captured at excitation/emission wavelengths of 482/[…] (GFP fluorescence) or 543/593 nm (DsRed fluorescence) using a high content analysis (HCA) system (Micro Confocal High-Content Imaging System). Image Acquisition and Analysis Software (MetaXpress) (Molecular Devices, Sunnyvale, CA, USA) was used to analyse the images. CellROX Orange (5 μM; Molecular Probes, Eugene, OR, USA) (for Aβ-GFP cells) or dichloro-dihydro-fluorescein diacetate (DCFH-DA, 10 μM; Invitrogen) (for ∆K280 tauRD-DsRed cells) was added to the cells and incubated at 37°C for 30 min. The HCA system was used to measure intracellular ROS at 531/593 nm (CellROX Orange fluorescence) or 482/536 nm (DCFH-DA fluorescence) of excitation/emission wavelengths.

[2] = tested on: ∆K280 tauRD-DsRed SH-SY5Y cells; experiment: Real-time PCR of tauRD-DsRed RNA; type: cell-based, Human; details: 10 μM
Experimental: To measure the Aβ-GFP/tauRD-DsRed RNA expression on day 8, total RNA was extracted from collected cells and reverse-transcribed to cDNA (SuperScript III reverse transcriptase; Invitrogen, Waltham, MA, USA). Real-time quantitative PCR was performed using 100 ng of cDNA and the gene-specific TaqMan fluorogenic probe PN4331348 (EGFP) or customized Assays-by-Design probe for DsRed and 4326321E (HPRT1) (StepOnePlus Real-time PCR system, Applied Biosystems, Foster City, CA, USA). The RNA expression level was calculated using the formula 2^ΔCt, ΔCT = CT (control) − CT (target), in which CT indicates the cycle threshold.

T1 sequence (P05067 672-713 limits assumed): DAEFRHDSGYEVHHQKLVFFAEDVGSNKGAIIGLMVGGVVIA

CN(C)c1ccc(/C=C/C(=O)c2c(O)c3ccccc3oc2=O)cc1 [LM-021, (E)-3-(3-(4-(dimethylamino)phenyl)acryloyl)-4-hydroxy-2H-chromen-2-one]
pEC50 (Aβ42 peptide): 4.85
pEC50 ([1]; Homo sapiens, ∆K280 tauRD-DsRed SH-SY5Y cells, read-out: Extrapolated EC50 in inhibiting ∆K280 tauRD aggregation (DsRed fluorescence)): 5.00
Concentration significantly elevating DsRed fluorescence intensity ([1]; day 8): 5 to 10 µM
∆K280 tauRD-DsRed RNA level [2]: did not significantly alter

Source: paper PMC8605905 (Oxidative Medicine and Cellular Longevity, 2021)
